Consider nine molecules from patent publication US20240374595A1, “SUBSTITUTED 1,1'-BIPHENYL COMPOUNDS, ANALOGUES THEREOF, AND METHODS USING SAME” (Arbutus Biopharma Corporation, priority 2018, published 2024).

The target of this assay is PD-L1 (Homo sapiens (Human), UniProt Q9NZQ7). Put plainly: PD-L1 HTRF assay (PD-1/PD-L1 interaction). Type of assay: binding. The following applies: PD-L1 His 6 nM, PD-1 Fc 6 nM; inhibitors 3-fold diluted from 20 μM. As for the experimental part: PD-L1 small molecule inhibitors were diluted by 3-fold starting from 20 μM and a final concentration of 0.001 μM and added to the well. PD-1 Fc protein was added at the final concentration of 6 nM. PD-L1 His protein, PD-L1 small molecule inhibitors, and PD1 Fc proteins were added to the well in this order, with each 5 μl volume, and were incubated for 15 minutes at room temperature. […] The plate was read using PerkinElmer Envision plate reader and data was analyzed by Prism 6 software.
PD-L1, sequence (Q9NZQ7 19-238): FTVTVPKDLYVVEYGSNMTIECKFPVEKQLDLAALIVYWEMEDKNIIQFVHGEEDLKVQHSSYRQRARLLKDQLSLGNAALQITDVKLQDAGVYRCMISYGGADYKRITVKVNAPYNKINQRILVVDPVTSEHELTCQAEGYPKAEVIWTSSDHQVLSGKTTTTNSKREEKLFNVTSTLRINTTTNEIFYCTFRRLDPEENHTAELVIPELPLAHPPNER
(In general: In TR-FRET formats the signal depends on donor and acceptor labels being close together.)
A word on the IC50: it is the concentration that inhibits the measured activity by half. A lower IC50 goes with greater potency in that assay. Consider `Cc1c(COc2cc(OCc3cncc(C#N)c3)c(C3=NCC(O)CN3)cc2Cl)cccc1-c1cccc(COc2cc(OCc3cncc(C#N)c3)c(C3=NCC(O)CN3)cc2Cl)c1C` (stereo not drawn) [Example 28, 5-[[4-chloro-5-[[3-[3-[[2-Chloro-5-[(5-cyano-3-pyridyl)methoxy]-4-(5-hydroxy-1,4,5,6-tetrahydropyrimidin-2-yl)phenoxy]methyl]-2-methyl-phenyl]-2-methyl-phenyl]methoxy]-2-(5-hydroxy-1,4,5,6-tetrahydropyrimidin-2-yl)phenoxy]methyl]pyridine-3-carbonitrile], for which the midpoint of inhibition, the IC50, lay at 6.7 nM.
In turn, `COc1cc(OCc2cccc(-c3cccc(COc4cc(OC)c(CN5CCCC[C@H]5C(=O)O)cc4Cl)c3C)c2C)c(Cl)cc1CO` [Example 30, (2S)-1-[[5-chloro-4-[[3-[3-[[2-chloro-4-(hydroxymethyl)-5-methoxy-phenoxy]methyl]-2-methyl-phenyl]-2-methyl-phenyl]methoxy]-2-methoxy-phenyl]methyl]piperidine-2-carboxylic acid] yielded a concentration for half-maximal inhibition (IC50) of 4 nM.
Turning to `COc1cc(OCc2cccc(-c3cccc(COc4cc(OC)c(CNCCO)cc4Cl)c3C)c2C)c(Cl)cc1CNCCO` [Example 31, 2,2′-((((((2,2′-Dimethyl-[1,1′-biphenyl]-3,3′-diyl)bis(methylene))bis(oxy))bis (5-chloro-2-methoxy-4,1-phenylene))bis(methylene))bis(azanediyl))bis(ethan-1-ol)], half-maximal inhibition (IC50) required 1 nM.
As to `Cc1c(NC(=O)c2ccc(CO)cn2)cccc1-c1cccc(NC(=O)c2ccc(CO)cn2)c1C` [Example 32, 5-(Hydroxymethyl)-N-[3-[3-[[5-(hydroxymethyl)pyridine-2-carbonyl]amino]-2-methyl-phenyl]-2-methyl-phenyl]pyridine-2-carboxamide], the half-maximal inhibitory concentration (IC50) is 3.2 nM.
For the molecule `Cc1c(NC(=O)c2ccc(CNCCO)cn2)cccc1-c1cccc(OCCCN2CCC(O)CC2)c1C` [Example 33, 5-[(2-hydroxyethylamino)methyl]-N-[3-[3-[3-(4-hydroxy-1-piperidyl)propoxy]-2-methyl-phenyl]-2-methyl-phenyl]pyridine-2-carboxamide], the half-maximal inhibitory concentration (IC50) is 3.7 nM.
Regarding `Cc1c(NC(=O)c2ccc(CNCCO)cn2)cccc1-c1cccc(NC(=O)c2ccc(CNCCO)cn2)c1C` [Example 34, 5-[(2-Hydroxyethylamino)methyl]-N-[3-[3-[[5-[(2-hydroxyethylamino)methyl]pyridine-2-carbonyl]amino]-2-methyl-phenyl]-2-methyl-phenyl]pyridine-2-carboxamide], the half-maximal inhibitory concentration (IC50) is 1 nM.
On to `Cc1c(NC(=O)c2ccc(C3=NCCC(C(=O)O)N3)cn2)cccc1-c1cccc(NC(=O)c2ccc(C3=NCCC(C(=O)O)N3)cn2)c1C` (stereo not drawn) [Example 35, 2-[6-[[3-[3-[[5-(4-Carboxy-1,4,5,6-tetrahydropyrimidin-2-yl)pyridine-2-carbonyl]amino]-2-methyl-phenyl]-2-methyl-phenyl]carbamoyl]-3-pyridyl]-1,4,5,6-tetrahydropyrimidine-4-carboxylic acid], for which the IC50 is 0.3 nM.
The molecule `Cc1c(NC(=O)c2ccc(CNCCO)cn2)cccc1-c1cccc(NC(=O)c2ccc(CN3CC[C@@H](O)C3)cn2)c1C` [Example 37, (R)-5-(((2-hydroxyethyl)amino)methyl)-N-(3′-(5-((3-hydroxypyrrolidin-1-yl)methyl)picolinamido)-2,2′-dimethyl-[1,1′-biphenyl]-3-yl)picolinamide] returned a half-maximal inhibitory concentration (IC50) of 0.8 nM.
In the case of `Cc1c(NC(=O)c2ccc(CNCCO)cn2)cccc1-c1cccc(NC(=O)c2ccc(CN(C)CCO)cn2)c1C` [Example 38, 5-(((2-hydroxyethyl)-(methyl)amino)methyl)-N-(3′-(5-(((2-hydroxyethyl)amino)methyl)picolinamido)-2,2′-dimethyl-[1,1′-biphenyl]-3-yl)picolinamide], the concentration for half-maximal inhibition (IC50) is 0.9 nM.
